Source: article PMC8763243, “Synthesis of Novel Suramin Analogs With Anti-Proliferative Activity via FGF1 and FGFRD2 Blockade” (Frontiers in Chemistry, 2022)
Where “and” joins values, the source holds several entries; their conditions need not be identical. Equal values may be shown once.

What was measured:
FGF1 = molecular target: T1, FGF1 (Homo sapiens, UniProt P05230); experiment: Fluorescence spectroscopy binding constant of FGF1 and suramin derivatives; conditions: fluorescence quenching, 5 µM FGF1, non-linear regression with Stern–Volmer equation, pH 6.5
T1 construct: made in house
Method: The binding constant Kd was calculated for FGF1 and the five derivatives in a buffer containing 10% D2O, 50 mM AMS, 20 mM phosphate buffer, and 50 mM NaCl at pH 6.5 using an F-2500 Hitachi fluorescence spectrophotometer.
[…] has tremendous significance for biochemical application because it provides valuable knowledge about the probability of quencher activity. The anti-mitogenic activity of the five compounds was achieved by the same mechanism in which suramin inhibits the mitogenic activity of FGF1. A non-linear regression curve was plotted for the relative intensities of activity versus drug concentration using the Stern–Volmer equation (Eq. 1). log(F0−F)/F=logK+nlog[Q], (1)
where F0 represents the fluorescence intensity in the absence of the compounds, and F represents the fluorescence intensity in the presence of the [Q] concentration of the compounds.
Increasing concentrations of these five suramin derivatives were added to a solution containing 5 µM FGF1. A reduction in the fluorescence intensity was reported for all five suramin derivatives. The Stern–Volmer equation was used to calculate the binding constant between FGF1 and compounds 14, 15, 17, 18, and 21 for relative intensities versus the total concentration in a non-linear regression curve.

[1] = WST-1 assay, cytotoxicity in tumorigenic cells; type: cell-based, human; conditions: human; MCF-7 cells, 48 h, SigmaPlot; read-out: estimated IC50 (cytotoxicity)
Method: (§1) The water-soluble tetrazolium salt (WST-1) assay was performed to assess the effects of the compounds on cell proliferation and cytotoxicity. DMEM/F12 containing 10% FBS was used for the cell culture, and incubation was performed in 5% CO2 till the logarithmic growth phase was achieved. On the day before the experiment, the cells were trypsinized and seeded in a 96-well plate at a density of 5000 cells/well. For the FGF1-stimulated cell proliferation assay, the cells were then incubated for 24 h in a serum-free medium containing 0.1% bovine serum albumin (BSA). Serum-starved cells with or without a specified concentration of suramin, 14, 15, 17, 18, 21, and FGFRD2 were stimulated with 100 nM of FGF1 again for 48 h. For the purpose of the cytotoxicity assay, the cells were treated with an increased concentration of suramin and compounds 14, 17, 15, 18, and 21 (Figure 6) for 48 h. Also, 1/10 of the volume of WST-1 cell reagent was inserted in every well and maintained at 37°C for another 4 h before harvesting. There was gentle agitation of the medium in the cell culture plate for 10 min using a shaker. A Synergy 2 microplate reader (BioTek Instruments, Inc., VT, United States) was used to measure the absorbance at 450 nm. The relative absorbance was compared with the control treatment to determine the relative cell number.
(§2) […] […] The reason for the higher cytotoxicity was the presence of methyl groups on the suramin structure ([Martello et al., 2001]).
(§3) Suramin-induced neuropathy may depend on the effects on calcium (Ca^2+) homeostasis as a potential pathological mechanism, and the full or partial positive charge of the element when directly attached to the ring at each of the sulphonic groups (HSO3). These interactions exert a moderate to strong electron-withdrawing inductive effect, which may be responsible for the observed suramin cytotoxicity ([Prasetyaningrum et al., 2018]; [Von Der Ahe et al., 2018]). The cytotoxicity of the synthesized analogs was lower as there were methyl groups and no sulfonic acid groups attached to the suramin backbone. The IC50 values of the synthesized compounds in MCF-7 breast cancer cells were analyzed using SigmaPlot software.

MCF-7 cells = experiment: WST-1 assay, cytotoxicity in tumorigenic cells; type: cell-based, human; conditions: for Mean (Blank 450) / Fold (mean) / Blank 450 / Fold: S8; for Fold (mean): relative to control; for Blank 450: single replicate absorbance; for Fold: single replicate relative to control; for cytotoxicity compared with suramin: MCF-7 cells, 1-100 µM, 48 h, especially at concentrations higher than 10 µM
Method: as §1, §2, §3

[2] = WST-1 assay, cytotoxicity in normal breast epithelial cell line (non-tumorigenic); type: cell-based; conditions: human; non-tumorigenic MCF-10A cells; read-out: estimated IC50 (cytotoxicity)
Method: as §1
In order to gain some insight about the selectivity of the compounds between tumorigenic and non-tumorigenic cells, the cytotoxicity was also being evaluated against normal breast cell lines by examining the cytotoxicity of suramin and its derivatives, compounds 15, 18, and 21, in a normal breast epithelial cell line (non-tumorigenic), MCF-10A. […] Compared to their cytotoxicity in tumorigenic MCF-7 cells (Figure 6), the estimated IC50 values in MCF-10A were higher than those in MCF-7 cells. […] However, the estimated IC50 value of suramin and its derivatives in both non-tumorigenic MCF-10A and tumorigenic MCF-7 cells were over 100 μM. The effective concentrations of suramin and its derivatives to attenuate FGF1-stimulated cell proliferation in MCF-7 cells were around 1 μM (Figure 5), which is non-toxic concentration to both MCF-7 cells and MCF-10A cells. […] Therefore, in addition to the specificity of each drug, the selectivity of suramin and its derivatives to disrupt the FGF1/FGFR-mediated breast cancer growth might rely on the overexpression or amplification of FGFR2 in breast cancer cells, but not in normal cells, and the secreted FGF1 ligand by autocrine or paracrine effects from cancer cells or their surrounding stroma cells or adipocytes (tumor microenvironment). The statistical data for the cytotoxicity are shown in Supplementary Figure S8.

[3] = Exposure stability study by 1H NMR in DMSO-d6 and D2O; type: physicochemical; conditions: 0.017 mol/L in DMSO-d6 and D2O, 11 days
Method: The stability of the compounds was verified in both aqueous and DMSO solutions. In aqueous medium, the stability of the suramin derivatives 15 and 18 were considered to verify the stability. A control experiment consisting of a DMSO-d 6 (0.017 mol/L) solution of 15 and a D2O solution of 15 (0.017 mol/L) was maintained on the laboratory bench. All experiments were performed in NMR tubes containing 0.017 mol/L solutions of compounds 15 and 18 in DMSO-d 6 and D2O, respectively. NMR spectra were recorded over 11 days (initially daily for 1 week).
10 mg of the newly synthesized compound was diluted in 500 µL DMSO-d 6 under investigation in a 5-mm NMR tube. The procedure was maintained as it is for 11 days in the solution. The ^1H NMR spectrum was recorded daily for 4 days up to 11 days.
10 mg of the novel compound was diluted in 500 µL D2O under investigation in a 5-mm NMR tube. The procedure was maintained as it is for 11 days in the solution. The ^1H NMR spectrum was recorded daily for 4 days up to 11 days.

T1 sequence (P05230 whole entry): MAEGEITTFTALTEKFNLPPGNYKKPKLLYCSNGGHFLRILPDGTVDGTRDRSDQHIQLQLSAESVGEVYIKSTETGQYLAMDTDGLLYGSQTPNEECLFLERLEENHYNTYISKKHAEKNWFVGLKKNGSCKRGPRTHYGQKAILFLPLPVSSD

O=C(Nc1ccc(C(=O)Nc2ccc(C(=O)Nc3cc(S(=O)(=O)O)cc4cc(S(=O)(=O)O)cc(S(=O)(=O)O)c34)cc2)cc1)Nc1ccc(C(=O)Nc2ccc(C(=O)Nc3cc(S(=O)(=O)O)cc4cc(S(=O)(=O)O)cc(S(=O)(=O)O)c34)cc2)cc1 [Compound 18, Sodium 8,8'-((4,4'-((4,4'-(carbonylbis (azanediyl))bis (benzoyl))bis (azanediyl))bis (benzoyl))bis(azanediyl)) bis (naphthalene-1,3,6-trisulfonate)]
Kd (FGF1): 15.5 µM
IC50 at 48 h [1]: > 100 µM
Mean (Blank 450) (MCF-7 cells; 1 uM): 1.224
Fold (mean) (MCF-7 cells; 1 uM): 1.05
Blank 450 (MCF-7 cells; 1 uM): 1.234 and 1.224 and 1.182 and 1.256
Fold (MCF-7 cells; 1 uM): 1.059 and 1.050 and 1.014 and 1.078
Mean (Blank 450) (MCF-7 cells; 5 uM): 1.176
Fold (mean) (MCF-7 cells; 5 uM): 1.01
Blank 450 (MCF-7 cells; 5 uM): 1.176 and 1.214 and 1.141 and 1.173
Fold (MCF-7 cells; 5 uM): 1.009 and 1.042 and 0.979 and 1.007
Mean (Blank 450) (MCF-7 cells; 10 uM): 1.160
Fold (mean) (MCF-7 cells; 10 uM): 1.00
Blank 450 (MCF-7 cells; 10 uM): 1.108 and 1.161 and 1.207 and 1.165
Fold (MCF-7 cells; 10 uM): 0.951 and 0.996 and 1.036 and 1.000
Mean (Blank 450) (MCF-7 cells; 50 uM): 1.139
Fold (mean) (MCF-7 cells; 50 uM): 0.98
Blank 450 (MCF-7 cells; 50 uM): 1.184 and 1.149 and 1.053 and 1.169
Fold (MCF-7 cells; 50 uM): 1.016 and 0.986 and 0.904 and 1.003
Mean (Blank 450) (MCF-7 cells; 100 uM): 1.057
Fold (mean) (MCF-7 cells; 100 uM): 0.91
Blank 450 (MCF-7 cells; 100 uM): 1.098 and 1.004 and 1.043 and 1.081
Fold (MCF-7 cells; 100 uM): 0.942 and 0.862 and 0.895 and 0.928
cytotoxicity compared with suramin (MCF-7 cells): less toxic
IC50 at 48 h [2]: 653.4 ± 2.31 µM
stability in solution (1H NMR) [3]: remarkably stable

O=C(Nc1ccc(C(=O)Nc2cc(S(=O)(=O)[O-])cc3cc(S(=O)(=O)[O-])cc(S(=O)(=O)[O-])c23)cc1)Nc1ccc(C(=O)Nc2cc(S(=O)(=O)[O-])cc3cc(S(=O)(=O)[O-])cc(S(=O)(=O)[O-])c23)cc1.[Na+].[Na+].[Na+].[Na+].[Na+].[Na+] [Compound 15, Sodium 8,8'-((4,4'-(carbonylbis (azanediyl))bis (benzoyl))bis (azanediyl))bis (naphthalene-1,3,6-trisulfonate)]
Kd (FGF1): 20.9 µM
IC50 at 48 h [1]: > 100 µM
Mean (Blank 450) (MCF-7 cells; 1 uM): 1.163
Fold (mean) (MCF-7 cells; 1 uM): 1.00
Blank 450 (MCF-7 cells; 1 uM): 1.143 and 1.162 and 1.195 and 1.152
Fold (MCF-7 cells; 1 uM): 0.981 and 0.997 and 1.026 and 0.989
Mean (Blank 450) (MCF-7 cells; 5 uM): 1.146
Fold (mean) (MCF-7 cells; 5 uM): 0.98
Blank 450 (MCF-7 cells; 5 uM): 1.161 and 1.116 and 1.206 and 1.101
Fold (MCF-7 cells; 5 uM): 0.996 and 0.958 and 1.035 and 0.945
Mean (Blank 450) (MCF-7 cells; 10 uM): 1.122
Fold (mean) (MCF-7 cells; 10 uM): 0.96
Blank 450 (MCF-7 cells; 10 uM): 1.151 and 1.117 and 1.059 and 1.162
Fold (MCF-7 cells; 10 uM): 0.988 and 0.959 and 0.909 and 0.997
Mean (Blank 450) (MCF-7 cells; 50 uM): 0.982
Fold (mean) (MCF-7 cells; 50 uM): 0.84
Blank 450 (MCF-7 cells; 50 uM): 0.998 and 1.012 and 0.955 and 0.961
Fold (MCF-7 cells; 50 uM): 0.856 and 0.868 and 0.820 and 0.825
Mean (Blank 450) (MCF-7 cells; 100 uM): 0.880
Fold (mean) (MCF-7 cells; 100 uM): 0.75
Blank 450 (MCF-7 cells; 100 uM): 0.927 and 0.887 and 0.833 and 0.872
Fold (MCF-7 cells; 100 uM): 0.796 and 0.761 and 0.715 and 0.748
cytotoxicity compared with suramin (MCF-7 cells): less toxic
IC50 at 48 h [2]: 221 ± 3.57 µM
stability in solution (1H NMR) [3]: remarkably stable
